The text below walks through data of patent publication US20100204460A1, “NATURAL BRASSINOSTEROIDS FOR USE FOR TREATING HYPERPROLIFERATION, TREATING PROLIFERATIVE DISEASES AND REDUCING ADVERSE EFFECTS OF STEROID DYSFUNCTION IN MAMMALS, PHARMACEUTICAL COMPOSITION AND ITS USE” (priority 2007, published 2010).

Common to all, as to assay type: cell-based
One assay relates to MDA-MB-468 cells. In words: TUNEL detection of apoptosis, MDA-MB-468. The following applies: IC50 concentration, control 0.0 ± 0.0. As for the experimental part:
(§1) TdT-Mediated dUTP nick end labeling (TUNEL) detection of apoptosis index. For detection of apoptotic cells, the TUNEL assay was used. […] After period of treatment, the cells were washed with PBS and fixed on the slides with cold acetone-methanol (1:1, v/v) for 10 min. Apoptosis-induced nuclear DNA fragmentation was detected by terminal deoxynucleotidyl transferase-mediated UTP nick end labeling (TUNEL) technique according to the producer protocol (In Situ Cell Death Detection Kit; Roche Diagnostics, Mannheim, Germany). The cells were then washed three times in PBS and stained with 4′-6-diamidino-2-phenylindole (DAPI; 50 μg/ml; Sigma, St. Louis, Mo., USA) for 10 min in the dark. The coverslips with cells were washed in deionized water and mounted on glass slides, using the hydrophilic medium Mowiol (Calbiochem, Fremont, Calif., USA) in glycerol-PBS (1:3, v/v) for fluorescence. Cells were visualized using fluorescence microscopy and compared with control cells. TUNEL staining achieved to confirm apoptosis in all cell lines.

For assay [1], the system named is DU-145 cells. The assay is described as follows: Cell cycle distribution by flow cytometry, DU-145. Conditions: IC50, 24 h; for Cell cycle distribution S: control 15%; for Apoptosis subG1 fraction: control 20%; for Cell cycle distribution G2/M: control 23%; for Cell cycle distribution G1: control 62%. The source says:
In the MCF-7 breast cancer cell line that has been the most widely studied experimental cell system, the typical growth inhibitory response to antiestrogens is decrease in the proportion of cells synthesising DNA (S phase) after antiestrogen treatment. This decrease in S phase coincides with an increase in the proportion of cells in G0/G1 phase. The activity of the androgen receptor (AR) is also regulated by alterations in cell signaling. There has been reported ligand independent activation of AR in prostate cancer cells by different growth factors. As the AR can be activated in the absence of hormone, it appears that the conditions may be more restricted than those observed for ER. Use of physiologic doses of ligand (dihydrotestosterone, DHT) is of importance as the LNCaP cells proliferate only at DHT concentration of 10^−9 M or lower. […] In contrast to proliferation, transactivation of AR specific target genes (e.g. PSA) continues to increase with DHT doses of 10^−10 M and higher. It might be accepted for estrogen or androgen receptors as stronger cytotoxic activities of brassinosteroids 9 or 6 on hormone-sensitive (MCF-7, LNCaP) compared to hormone-insensitive (MDA-MB-468, DU-145) cell lines were found. Therefore we explored the possibility of cell cycle perturbation by BRs in different cancer cell lines. Flow cytometry was used to evaluate the number of cells in the particular phases of the cell cycle, including subG1 peak detection. Control and treated cells were washed twice with cold PBS and centrifuged at 360×g for 10 min at 4° C., and fixed with chilled ethanol (70%; v/v) by low-speeded vortexing. For detection of DNA content analysis, propidium iodide staining was used. The cells were analyzed using a FACSCalibur flow cytometer (BD Biosciences, San Jose, Calif.).
Flow-cytometric detection of apoptosis. Several studies have declared that the induction of apoptosis may be cell cycle-dependent. Therefore, in our next series of experiments, we tested if brassinosteroids 9 or 6 cause apoptosis of the breast and prostate cancer cells via cell cycle blockage. From this reason we carried out DNA cell cycle analysis by flow cytometry based on detection of endonucleolytic DNA degradation that results in extraction of low molecular weight DNA from the cells. […] The subG1 peak containing apoptotic bodies was however not observed in MCF-7 cells.

The test system of assay [2] is DU-145 cells. The assay is described as follows: Western blot of cell cycle and apoptosis related proteins, DU-145. Conditions: for MDM-2 level (Western blot) / anti-apoptotic protein Bcl-2 expression (Western blot): IC50 for 6, 12, 24 h vs untreated control; for p53 expression (Western blot): vs untreated control. As for the experimental part:
The cells were seeded in a density 1.6×10^4 cells/cm^2 (LNCaP), 1.4×10^4 cells/cm^2 (DU-145, MDA-MB-468 and MCF-7) using culture medium in 100-mm culture Petri dishes. After reaching of 70-80% confluence, the cells were treated with tested compounds 9 in concentration IC50 that were evaluated by MTT analysis described above. DMSO was used as a vehicle for controls. After 6, 12 and 24 h treatment, the cells were washed with cold PBS and scraped in ice-cold protein extract ion buffer (50 mM HEPES, pH 7.5; 150 mM NaCl; 1 mM EDTA; 2.5 mM EGTA; 10% glycerol; 0.1% Tween 20) with protease and phosphatase inhibitors (25 μL/mL phenylmethanesulphonyl fluoride; 2.5 μL/mL leupeptin; 0.1 mM Na3VO4; 2.5 μL/mL aprotinin; 10 mM β-glycerol-phosphate; 1 mM dithiothreitol). The lysates were collected into microfuge tube and incubated on ice for 1 h. Cells were incubated 60 min at 4° C. under time by time shaking in protein extraction buffer. After centrifugation at 45 000×g for 30 min at 4° C., supernatant was collected, aliquoted, and stored at −80° C. The protein content in the lysates was measured by a Bredford assay (Bio-Rad Laboratories, Hercules, Calif., USA) according to the manufacture's protocol.
For Western blot analysis, equal aliquots of proteins (15-30 μg/well) were loaded on 10% or 12% SDS-PAGE gels and transferred onto nitrocellulose membranes (Amersham Biosciences, Vienna, Austria) by semi-dry electrophoretic transfer. Coloured marker (Rainbow™, Amersham Biosciences, Vienna, Austria) was used as a protein molecular weight standard. The non-specific binding sites were blocked by incubating the blot with 5% (w/v) non-fat dry milk in PBS for 2 h. The blot was incubated overnight in 4° C. with appropriate primary antibody that detects the protein epitope of interest and finally washed in PBS with 0.1% Tween 20 for 1 h. The blot was incubated with the diluted secondary goat anti-mouse IgG-horseradish peroxidase conjugated antibody (dilution 1:6000, Santa Cruz Biotechnology, Santa Cruz, Calif., USA) or goat anti-rabbit IgG-horseradish peroxidase conjugated antibody (dilution 1:2000, DakoCytomation, Glostrup, Denmark) for 45 min in 4° C. The membrane was washed in PBS with 0.1% Tween 20 for 1 h. The proteins were detected using a chemiluminescence detection system (Amersham Biosciences, Vienna, Austria) according to the protocol provided by the manufacturer. Equality of loaded proteins was confirmed by Ponceau S membrane staining (Sigma, St. Louis, Mo., USA) and by detection of anti-tubulin-α or anti-mcm-7 antibodies. The experiments were repeated three times. The protein expressions in treated cells were compared to untreated controls.
Western blot analysis was used to detect changes in apoptosis related protein expression in breast and prostate cancer cell lines. […] This decreased expression of Bid can indicate a cleavage of the protein after treatment by BRs. In DU-145 cell line, expression of pro-apoptotic proteins Bax and Bid was unchanged. […] On the other hand, caspase cleavage was not found in DU-145 cells. Poly-(ADP-ribose) polymerase (PARP) positive expression in controls of prostate cancer cell lines was observed but brassinosteroids had no effect on its expression nor on its degradation within the period 6/12/24 h (FIG. 6B).

The next assay concerns MCF-7 cells. The assay is described as follows: TUNEL detection of apoptosis, MCF-7. The following applies: IC50 concentration. The method, then: as §1

Consider `CC[C@@H](C(C)C)[C@@H](O)[C@H](O)[C@@H](C)[C@H]1CC[C@H]2[C@@H]3CC(=O)[C@H]4C[C@H](O)[C@H](O)C[C@]4(C)[C@H]3CC[C@]12C` [Brassinosteroid 9, 28-Homocastasterone], for which, in the assay on MDA-MB-468 cells (6 h), the “percentage of TUNEL positive cells” value is listed as 1.7 ± 0.6%. Further, in the assay with MDA-MB-468 cells (12 h), the “percentage of TUNEL positive cells” value was 2.3 ± 0.6%. For the same molecule, the “percentage of TUNEL positive cells” value with MDA-MB-468 cells (24 h) stood at 4.3 ± 0.6 %. In the assay with DU-145 cells [1], the “Cell cycle distribution S” value was 8%, the “Apoptosis subG1 fraction” value is 28%, the “Cell cycle distribution G2/M” value was 46% and the “Cell cycle distribution G1” value was 46%. For the same molecule, in the assay with DU-145 cells [2], the “MDM-2 level (Western blot)” value is “decreased level of MDM-2 in all time points”; the “anti-apoptotic protein Bcl-2 expression (Western blot)” value was “decreased after treatment with 9 (6, 12 and 24 h)”; the “p53 expression (Western blot)” value is on record as “no p53 expression changes”. Moreover, in the assay with MCF-7 cells (6 h, control 0.0 ± 0.0), the “percentage of TUNEL positive cells” value is 10.6 ± 1.5 %. Besides, the “percentage of TUNEL positive cells” value in the assay on MCF-7 cells (12 h, control 0.0 ± 0.0) worked out at 13.7 ± 3.8 %. For the same molecule, the “percentage of TUNEL positive cells” value in the assay with MCF-7 cells (24 h, control 0.3 ± 0.6) was found to be 13.7 ± 2.6 %.
Take `CC(C)[C@@H](C)[C@@H](O)[C@H](O)[C@@H](C)[C@H]1CC[C@H]2[C@@H]3COC(=O)[C@H]4C[C@H](O)[C@H](O)C[C@]4(C)[C@H]3CC[C@]12C` [Brassinosteroid 6, 24-Epibrassinolide]: in the assay with MDA-MB-468 cells (6 h), the “percentage of TUNEL positive cells” value was 4.7 ± 0.6 %. Further, in the assay with MDA-MB-468 cells (12 h), the “percentage of TUNEL positive cells” value is 16.7 ± 4.7 %. Further, the “percentage of TUNEL positive cells” value with MDA-MB-468 cells (24 h) was 18.3 ± 3.0 %. Moreover, in the assay with DU-145 cells [1], the “Cell cycle distribution S” value amounted to 8%, the “Apoptosis subG1 fraction” value is given as 24%, the “Cell cycle distribution G2/M” value turned out to be 39% and the “Cell cycle distribution G1” value was found to be 53%. In the assay on DU-145 cells [2], the “MDM-2 level (Western blot)” value was “decreased level of MDM-2 in all time points”; the “anti-apoptotic protein Bcl-2 expression (Western blot)” value is “decreased after treatment with 9 (6, 12 and 24 h) or 6 (6 and 24 h)”; the “p53 expression (Western blot)” value is “no p53 expression changes”. Besides, the “percentage of TUNEL positive cells” value with MCF-7 cells (6 h, control 0.0 ± 0.0) was 2.7 ± 1.2 %. Besides, the “percentage of TUNEL positive cells” value in the assay with MCF-7 cells (12 h, control 0.0 ± 0.0) turned out to be 8.3 ± 3.1 %. Besides, the “percentage of TUNEL positive cells” value with MCF-7 cells (24 h, control 0.3 ± 0.6) is 11.7 ± 3.8 %.
